Consider 28 compounds from patent US10703757B2, “Compounds and methods for CDK8 modulation and indications therefor” (Plexxikon Inc., priority 2016, dated 2020).

The term IC50 denotes the concentration at which inhibition is half-maximal. A higher IC50 goes with lower potency.

The subject of assay [1] is CDK8 (phosphorylation of STAT1 at serine 727 in A549 cells). The experiment in a line: Cell based Phospho-STAT1 assay (IFNγ-stimulated A549 cells, AlphaLISA). The conditions noted are these: Homo sapiens, A549, A549 cells, phospho-STAT1 after IFNγ stimulation. The method in brief: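 A549 cells given serial compound dilutions for 1 h at 37 °C, then stimulated with IFNγ at 10 ng/mL final for 30 min. Lysate STAT1 Ser727 phosphorylation measured by AlphaLISA; % inhibition vs stimulated/unstimulated DMSO controls, IC50 by nonlinear regression.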

Assay [2] relates to CDK8 (TCF/LEF luciferase reporter in HCT116 cells). The experiment in a line: Cell based TCF/LEF reporter assay (HCT116+TCF/LEF luciferase). The conditions noted are these: Homo sapiens, HCT-116, 24 h. The method in brief:
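HCT116 cells stably carrying a TCF/LEF-luciferase reporter (endogenous mutant β-catenin), seeded overnight, then exposed to serial compound dilutions for 24 h at 37 °C. Luminescence normalized to CellTiter-Fluor viability signal. % inhibition relative to DMSO and 10 uM CCT251545 controls, with IC50 from nonlinear regression.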
(In general: A reporter such as luciferase makes a cellular process visible.)

With `CC(C)(O)C#Cc1cccn2ncc(-c3cnn(-c4cncc(C5CC5)c4)c3)c12` [Compound P-0289, 4-(3-(1-(5-cyclopropylpyridin-3-yl)-1H-pyrazol-4-yl)pyrazolo[1,5-a]pyridin-4-yl)-2-methylbut-3-yn-2-ol], the IC50 in assay [1] and in assay [2] was 1000 to 10000 nM each time.

In the case of `Cn1cc(-c2ccc(-c3cnn4cccc(N5CCC(F)(C#N)CC5)c34)cc2)cn1` [Compound P-0293, 4-fluoro-1-(3-(4-(1-methyl-1H-pyrazol-4-yl)phenyl)pyrazolo[1,5-a]pyridin-4-yl)piperidine-4-carbonitrile], the IC50 in assay [1] was in the range of 0.1 to 100 nM; in assay [2], 1000 to 10000 nM.

As for `Cn1cc(-c2ccc(-c3cnn4cccc(C#CC(C)(C)C(N)=O)c34)cc2)cn1` [Compound P-0295, 2,2-dimethyl-4-(3-(4-(1-methyl-1H-pyrazol-4-yl)phenyl)pyrazolo[1,5-a]pyridin-4-yl)but-3-ynamide], the half-maximal inhibitory concentration (IC50) in assay [1] and in assay [2] was 0.1 to 100 nM throughout.

On to `CNC(=O)C(C)(C)C#Cc1cccn2ncc(-c3ccc(-c4cnn(C)c4)cc3)c12` [Compound P-0296, N,2,2-trimethyl-4-(3-(4-(1-methyl-1H-pyrazol-4-yl)phenyl)pyrazolo[1,5-a]pyridin-4-yl)but-3-ynamide], for which the IC50 was in the range of 100 to 1000 nM in assay [1] and 1000 to 10000 nM in assay [2].

For the compound `Cn1cc(-c2ccc(-c3cnn4cccc(C#CC(C)(C)C(=O)O)c34)cc2)cn1` [Compound P-0297, 2,2-dimethyl-4-(3-(4-(1-methyl-1H-pyrazol-4-yl)phenyl)pyrazolo[1,5-a]pyridin-4-yl)but-3-ynoic acid], the IC50 lay in the range of 100 to 1000 nM in assay [1] and 0.1 to 100 nM in assay [2].

As for `CC(=O)N1CCC(Oc2cccc3ncc(-c4ccc(-c5cnn(C(F)F)c5)cc4)n23)CC1` [Compound P-0304, 1-[4-[3-[4-[1-(difluoromethyl)pyrazol-4-yl]phenyl]imidazo[1,2-a]pyridin-5-yl]oxy-1-piperidyl]ethanone], the IC50 in assay [1] and in assay [2] was 1000 to 10000 nM each time.

`Cn1cc(-c2ccc(-c3cnn4cccc(C#CC(C)(C)NS(C)(=O)=O)c34)cc2)cn1` [Compound P-0308, N-(2-methyl-4-(3-(4-(1-methyl-1H-pyrazol-4-yl)phenyl)pyrazolo[1,5-a]pyridin-4-yl)but-3-yn-2-yl)methanesulfonamide]: the 50% inhibitory concentration (IC50) in assay [1] and in assay [2] was 100 to 1000 nM in each case.

Turning to `Cn1cc(-c2ccc(-c3cnn4cccc(C#CC(C)(C)N)c34)cc2)cn1` [Compound P-0309, 2-methyl-4-(3-(4-(1-methyl-1H-pyrazol-4-yl)phenyl)pyrazolo[1,5-a]pyridin-4-yl)but-3-yn-2-amine], the 50% inhibitory concentration (IC50) lay within 0.1 to 100 nM in assay [1] and 100 to 1000 nM in assay [2].

Consider `Cn1cc(-c2ccc(-c3cnn4cccc(C#CC5(O)CCC5)c34)cc2)cn1` [Compound P-0310, 1-((3-(4-(1-methyl-1H-pyrazol-4-yl)phenyl)pyrazolo[1,5-a]pyridin-4-yl)ethynyl)cyclobutan-1-ol], for which the concentration for half-maximal inhibition (IC50) in assay [1] and in assay [2] was 0.1 to 100 nM throughout.

Take `Cc1nn(C)cc1-c1ccc(-c2cnn3cccc(C#CC(C)(C)O)c23)cc1` [Compound P-0311, 4-(3-(4-(1,3-dimethyl-1H-pyrazol-4-yl)phenyl)pyrazolo[1,5-a]pyridin-4-yl)-2-methylbut-3-yn-2-ol]: the results for the IC50 in assay [1] and in assay [2] were 0.1 to 100 nM and 100 to 1000 nM, respectively.

As for `COc1ncc(C#Cc2cnc3cccc(N4CCC(C#N)CC4)n23)cn1` [Compound P-0313, 1-(3-((2-methoxypyrimidin-5-yl)ethynyl)imidazo[1,2-a]pyridin-5-yl)piperidine-4-carbonitrile], the IC50 in assay [1] and in assay [2] was 100 to 1000 nM in each case.

For the compound `COc1ncc(C#Cc2cnc3cccc(C4=CCC(C#N)CC4)n23)cn1` (centres unmarked) [Compound P-0314, 4-(3-((2-methoxypyrimidin-5-yl)ethynyl)imidazo[1,2-a]pyridin-5-yl)cyclohex-3-ene-1-carbonitrile], the half-inhibitory concentration (IC50) in assay [1] and in assay [2] was 0.1 to 100 nM each time.

Regarding `O=C(C1CCC(c2cccn3ncc(-c4ccc(-c5cnn(C(F)F)c5)cc4)c23)CC1)N1CCC1` (centres unmarked) [Compound P-0315, azetidin-1-yl(4-(3-(4-(1-(difluoromethyl)-1H-pyrazol-4-yl)phenyl)pyrazolo[1,5-a]pyridin-4-yl)cyclohexyl)methanone], the IC50 in assay [1] and in assay [2] was 100 to 1000 nM each time.

`NC(=O)C1CCC(c2cccn3ncc(-c4ccc(-c5cnn(C(F)F)c5)cc4)c23)CC1` (centres unmarked) [Compound P-0316, 4-(3-(4-(1-(difluoromethyl)-1H-pyrazol-4-yl)phenyl)pyrazolo[1,5-a]pyridin-4-yl)cyclohexane-1-carboxamide]: the IC50 in assay [1] and in assay [2] was 0.1 to 100 nM throughout.

As to `CNC(=O)C1CCC(c2cccn3ncc(-c4ccc(-c5cnn(C(F)F)c5)cc4)c23)CC1` (centres unmarked) [Compound P-0317, 4-(3-(4-(1-(difluoromethyl)-1H-pyrazol-4-yl)phenyl)pyrazolo[1,5-a]pyridin-4-yl)-N-methylcyclohexane-1-carboxamide], the IC50 in assay [1] lay in the range of 0.1 to 100 nM; in assay [2] it was 100 to 1000 nM.

For the compound `CS(=O)(=O)C1CCC(Oc2cccc3ncc(-c4ccc(-c5cnn(C(F)F)c5)cc4)n23)C1` (centres unmarked) [Compound P-0321, 3-(4-(1-(difluoromethyl)-1H-pyrazol-4-yl)phenyl)-5-((3-(methylsulfonyl)cyclopentyl)oxy) imidazo[1,2-a]pyridine], the half-maximal inhibitory concentration (IC50) in assay [1] and in assay [2] was 1000 to 10000 nM in each case.

Turning to `N#CC1(c2ccccc2)CCN(c2cccc3ncc(-c4ccc(-c5cnn(C(F)F)c5)cc4)n23)CC1` [Compound P-0322, 1-(3-(4-(1-(difluoromethyl)-1H-pyrazol-4-yl)phenyl)imidazo[1,2-a]pyridin-5-yl)-4-phenylpiperidine-4-carbonitrile], the IC50 in assay [1] and in assay [2] was 100 to 1000 nM each time.

Turning to `Cn1cc(-c2ccc(-c3cnn4ccnc(C5=CCC(C#N)CC5)c34)cc2)cn1` (centres unmarked) [Compound P-0323, 4-(3-(4-(1-methyl-1H-pyrazol-4-yl)phenyl)pyrazolo[1,5-a]pyrazin-4-yl)cyclohex-3-ene-1-carbonitrile], the IC50 in assay [1] and in assay [2] was 0.1 to 100 nM throughout.

`Cn1ncc2cc(-c3cnn4ccnc(C5=CCC(C#N)CC5)c34)ccc21` (centres unmarked) [Compound P-0324, 4-(3-(1-methyl-1H-indazol-5-yl)pyrazolo[1,5-a]pyrazin-4-yl)cyclohex-3-ene-1-carbonitrile]: the concentration for half-maximal inhibition (IC50) in assay [1] and in assay [2] was 0.1 to 100 nM each time.

`N#CC1CCN(c2c(-c3ccc(OCCCN4CCOCC4)cc3)cnc3[nH]ccc23)CC1` [Compound P-0327, 1-(5-(4-(3-morpholinopropoxy)phenyl)-1H-pyrrolo[2,3-b]pyridin-4-yl)piperidine-4-carbonitrile]: the IC50 in assay [1] and in assay [2] was 0.1 to 100 nM each time.

Regarding `CN1CCN(C(=O)c2ccc3cc(-c4cnc5[nH]ccc5c4N4CCC(C#N)CC4)ccc3c2)CC1` [Compound P-0328, 1-(5-(6-(4-methylpiperazine-1-carbonyl)naphthalen-2-yl)-1H-pyrrolo[2,3-b]pyridin-4-yl)piperidine-4-carbonitrile], the half-maximal inhibitory concentration (IC50) in assay [1] and in assay [2] was 0.1 to 100 nM each time.

On to `CC(C)(O)Cn1cc(-c2ccc(-c3cnc4[nH]ccc4c3N3CCC(C#N)CC3)cc2)cn1` [Compound P-0329, 1-(5-(4-(1-(2-hydroxy-2-methylpropyl)-1H-pyrazol-4-yl)phenyl)-1H-pyrrolo[2,3-b]pyridin-4-yl)piperidine-4-carbonitrile], for which the IC50 in assay [1] and in assay [2] was 0.1 to 100 nM each time.

`CNC(=O)c1ccc2cc(-c3cnn4cccc(C5=CCC(C#N)CC5)c34)ccc2c1` (centres unmarked) [Compound P-0330, 6-(4-(4-cyanocyclohex-1-en-1-yl)pyrazolo[1,5-a]pyridin-3-yl)-N-methyl-2-naphthamide]: the IC50 in assay [1] and in assay [2] was 0.1 to 100 nM in each case.

Take `CN1CCN(C(=O)c2ccc(-c3cnc4[nH]ccc4c3C3=CCC(C#N)CC3)cc2)CC1` (centres unmarked) [Compound P-0331, 4-(5-(4-(4-methylpiperazine-1-carbonyl)phenyl)-1H-pyrrolo[2,3-b]pyridin-4-yl)cyclohex-3-ene-1-carbonitrile]: the IC50 in assay [1] and in assay [2] was 100 to 1000 nM in each case.

Consider `CC(C)(O)Cn1cc(-c2ccc(-c3cnc4[nH]ccc4c3C3=CCC(C#N)CC3)cc2)cn1` (centres unmarked) [Compound P-0332, 4-(5-(4-(1-(2-hydroxy-2-methylpropyl)-1H-pyrazol-4-yl)phenyl)-1H-pyrrolo[2,3-b]pyridin-4-yl)cyclohex-3-ene-1-carbonitrile], for which the half-inhibitory concentration (IC50) in assay [1] and in assay [2] was 0.1 to 100 nM each time.

Take `Cn1cc(-c2ccc(-c3cnn4cccc(C5=CCC(C(=O)N6CCC6)CC5)c34)cc2)cn1` (centres unmarked) [Compound P-0333, azetidin-1-yl-[4-[3-[4-(1-methylpyrazol-4-yl)phenyl]pyrazolo[1,5-a]pyridin-4-yl]cyclohex-3-en-1-yl]methanone]: the IC50 in assay [1] and in assay [2] was 100 to 1000 nM in each case.

As to `Cn1ncc2cc(-c3cnn4cccc(C5CCC(C#N)CC5)c34)ccc21` (centres unmarked) [Compound P-0337, 4-(3-(1-methyl-1H-indazol-5-yl)pyrazolo[1,5-a]pyridin-4-yl)cyclohexane-1-carbonitrile], the IC50 in assay [1] and in assay [2] was 0.1 to 100 nM throughout.

For `Cn1cc(-c2ccc(-c3cnc4[nH]ccc4c3C#CC(C)(C)O)cc2)cn1` [Compound P-0341, 2-methyl-4-(5-(4-(1-methyl-1H-pyrazol-4-yl)phenyl)-1H-pyrrolo[2,3-b]pyridin-4-yl)but-3-yn-2-ol], the concentration for half-maximal inhibition (IC50) in assay [1] and in assay [2] was 0.1 to 100 nM in each case.
